17 compounds from patent US9284283B2, “Macrocyclic compounds for modulating IL-17” (ENSEMBLE THERAPEUTICS CORPORATION, priority 2012, dated 2016) can be followed below.

Where only a bound is given, the exact number is not on record here.

For experiment [1], the target named is T1, biotinylated human IL-17 (binding to IL17R/Fc) (Homo sapiens, UniProt Q16552).
T1 construct: purchased R&D Systems 317-ILB (IL-17, biotinylated); 177-IR (IL17R/Fc)
T1 sequence (Q16552 20-155 limits assumed): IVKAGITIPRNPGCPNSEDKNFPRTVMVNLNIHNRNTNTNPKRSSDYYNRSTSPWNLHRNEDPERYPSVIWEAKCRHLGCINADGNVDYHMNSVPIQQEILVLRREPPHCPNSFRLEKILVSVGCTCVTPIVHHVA
Put plainly: IL-17 competition ELISA II (captured IL17R/Fc, biotinylated IL-17). In outline: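 Competition read-out: absorbance at 450 nm after streptavidin-HRP/TMB detection, fitted to a 4-parameter logistic model bounded by no-competitor and blank wells to give IC50. Compound was serially diluted 5-fold from 1 μM alongside 20 nM (stock) biotinylated IL-17 on IL17R/Fc (10 nM) captured via goat anti-human IgG, 30 min at room temperature.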
Background: An ELISA detects its analyte on a solid surface through an enzyme-linked reagent.

Experiment [2] concerns the target T2, recombinant human IL17a (binding to its receptor IL17R) (Homo sapiens, UniProt Q16552).
T2 construct: purchased R&D Systems 317-ILB (IL17a); 177-IR (IL17R/Fc)
T2 sequence (Q16552 20-155 limits assumed): T1 sequence (Q16552 20-155 limits assumed)
Briefly: IL-17 competition ELISA I (IL17a coated, IL17R/Fc binding). In outline: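 Plates coated with 20 nM recombinant human IL17a received compound dilutions and 12 nM IL17R/Fc (final) for 30 min at room temperature. Bound receptor was detected with HRP anti-human Fc and TMB, read at 450 nm. IC50 came from a 4-parameter logistic fit between no-competitor and blank controls.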

One may read the IC50 as the concentration that gives 50% inhibition. As to `O=C1CNC(=O)[C@@H](Cc2ccc(NC(=O)[C@H](Cc3ccccc3Cl)NC(=O)Cc3c(F)cc(F)cc3F)cc2)NC(=O)CC2(CCCC2)CC(=O)NCCCCCN1` [Compound 325], the IC50 in experiment [1] and in experiment [2] was less than 100 nM throughout.
Take `O=C1CC2(CCCC2)CC(=O)N[C@H](Cc2ccc(NC(=O)[C@@H](NC(=O)Cc3ccccc3)C3CCCCC3)cc2)C(=O)NCCCCCCCN1` [Compound 348]: the IC50 fell in the range of 100 to 1000 nM in experiment [1] and 1000 to 10000 nM in experiment [2].
The matching figures for `CN1CCCCCNC(=O)CNC(=O)[C@@H](Cc2ccc(NC(=O)[C@H](Cc3ccccc3Cl)NC(=O)Cc3ccccc3)cc2)NC(=O)CC2(CCCC2)CC1=O` [Compound 280]: less than 100 nM and less than 100 nM.
For `O=C1CC2(CCCC2)CC(=O)N[C@H](Cc2ccc(NC(=O)[C@H](Cc3ccccc3Cl)NC(=O)Cc3ccc(CO)cc3)cc2)C(=O)NCCCCCCN1` [Compound 354] the same measures were less than 100 nM and 100 to 1000 nM.
As for `CC(=O)N[C@H](C(=O)Nc1ccc(C[C@H]2NC(=O)CC3(CCCC3)CC(=O)NCCCCCNC(=O)CNC2=O)cc1)C1CCCCC1` [Compound 377], the IC50 in experiment [1] is 100 to 1000 nM; in experiment [2], less than 100 nM.
The matching figures for `O=C1CNC(=O)[C@@H](Cc2ccc(NC(=O)[C@@H](NC(=O)Cc3ccccn3)C3CCCCC3)cc2)NC(=O)CC2(CCCC2)CC(=O)NCCCCCN1` [Compound 381]: less than 100 nM and 100 to 1000 nM.
The matching figures for `O=C1CC2(CCCC2)CC(=O)N[C@H](Cc2ccc(NC(=O)[C@H](Cc3ccccc3Cl)NC(=O)Cc3ccccc3)cc2)C(=O)NCCCCCCCN1` [Compound 347]: less than 100 nM and 100 to 1000 nM.
With `C[C@H]1NC(=O)[C@@H](Cc2ccc(NC(=O)[C@@H](NC(=O)c3cccnc3)C3CCCCC3)cc2)NC(=O)CC2(CCCC2)CC(=O)N[C@H](C(=O)O)CCCCNC1=O` [Compound 370], the half-maximal inhibitory concentration (IC50) in experiment [1] is less than 100 nM; in experiment [2], 100 to 1000 nM.
For `O=C1CC2(CCCC2)CC(=O)N[C@H](Cc2ccc(NC(=O)[C@@H](NC(=O)Cc3ccc(CO)cc3)C3CCCCC3)cc2)C(=O)NCCCCCCN1` [Compound 355], the values for the IC50 in experiment [1] and in experiment [2] were less than 100 nM and 1000 to 10000 nM, respectively.
For `O=C1CC2(CCCC2)CC(=O)N[C@H](Cc2ccc(NC(=O)[C@@H](NC(=O)Cc3ccccc3)C3CCCCC3)cc2)C(=O)NCCOCCOCCN1` [Compound 333] the same measures were less than 100 nM and 100 to 1000 nM.
For `CN1CCCCCCCCN(C)C(=O)[C@@H](Cc2ccc(N(C)C(=O)[C@H](Cc3ccccc3Cl)N(C)C(=O)c3ccccc3)cc2)N(C)C(=O)CC2(CCCC2)CC1=O` [Compound 372] the same measures were 100 to 1000 nM and 1000 to 10000 nM.
On to `CN1CCCCCNC(=O)CC2(CCCC2)CC(=O)N[C@H](Cc2ccc(NC(=O)[C@@H](NC(=O)Cc3ccccc3)C3CCCCC3)cc2)C(=O)NCC1=O` [Compound 335], for which the results for the IC50 in experiment [1] and in experiment [2] were less than 100 nM and 100 to 1000 nM, respectively.
Turning to `O=C1CC2(CCCC2)CC(=O)N[C@H](Cc2ccc(NC(=O)[C@H](Cc3ccccc3Cl)NC(=O)Cc3ccccc3)cc2)C(=O)N[C@@H](Cc2ccccc2)C(=O)NCCCCCN1` [Compound 317], in experiment [2], the IC50 was less than 100 nM.
For the compound `O=C1CNC(=O)[C@@H](Cc2ccc(NC(=O)[C@H](Cc3ccccc3Cl)NC(=O)Cc3ccccc3)cc2)NC(=O)CC2(CCCC2)CC(=O)NCCCCCOC(=O)CN1` [Compound 322], the IC50 in experiment [2] was in the range of 100 to 1000 nM.
Consider `O=C1CNC(=O)[C@@H](Cc2ccc(NC(=O)[C@H](CC3CCCCC3)NC(=O)Cc3ccc(O)cc3)cc2)NC(=O)CC2(CCCC2)CC(=O)NCCCCCN1` [Compound 294], for which, in experiment [2], the IC50 is less than 100 nM.
The same measure, in the same setting: in the case of `O=C1CNC(=O)[C@@H](Cc2ccc(NC(=O)[C@H](Cc3ccccc3Cl)NS(=O)(=O)Cc3ccccc3)cc2)NC(=O)CC2(CCCC2)CC(=O)NCCCCCN1` [Compound 272] it was 100 to 1000 nM; in that of `O=C1CC2(CCCC2)CC(=O)N[C@H](Cc2ccc(NC(=O)[C@H](Cc3ccccc3Cl)NC(=O)Cc3ccccc3)cc2)C(=O)NCC(=O)OCCCCCN1` [Compound 318], 100 to 1000 nM.
